Source: US6627628B1, “Substituted 4-amino-2-aryl-cyclopenta[d]pyrimidines, their production and use and pharmaceutical preparations containing same” (Aventis Pharma Deutschland, GmbH, priority 1998, dated 2003)

Legend:
[1] = biological target: T1, soluble guanylate cyclase (sGC) (Bos taurus, UniProt P16068+P19687); experiment: Activation of soluble guanylate cyclase (cGMP enzyme immunoassay); assay type: biochemical; conditions: sGC isolated from bovine lung; test substance 50 μM; 5% DMSO; 37° C., 15 to 20 minutes; [cGMP]test substance/[cGMP]control (basal enzyme activity)
T1 construct: The sGC employed had been isolated from bovine lung; from tissue; host or cells: bovine lung
T1 sequence (P19687 1-691): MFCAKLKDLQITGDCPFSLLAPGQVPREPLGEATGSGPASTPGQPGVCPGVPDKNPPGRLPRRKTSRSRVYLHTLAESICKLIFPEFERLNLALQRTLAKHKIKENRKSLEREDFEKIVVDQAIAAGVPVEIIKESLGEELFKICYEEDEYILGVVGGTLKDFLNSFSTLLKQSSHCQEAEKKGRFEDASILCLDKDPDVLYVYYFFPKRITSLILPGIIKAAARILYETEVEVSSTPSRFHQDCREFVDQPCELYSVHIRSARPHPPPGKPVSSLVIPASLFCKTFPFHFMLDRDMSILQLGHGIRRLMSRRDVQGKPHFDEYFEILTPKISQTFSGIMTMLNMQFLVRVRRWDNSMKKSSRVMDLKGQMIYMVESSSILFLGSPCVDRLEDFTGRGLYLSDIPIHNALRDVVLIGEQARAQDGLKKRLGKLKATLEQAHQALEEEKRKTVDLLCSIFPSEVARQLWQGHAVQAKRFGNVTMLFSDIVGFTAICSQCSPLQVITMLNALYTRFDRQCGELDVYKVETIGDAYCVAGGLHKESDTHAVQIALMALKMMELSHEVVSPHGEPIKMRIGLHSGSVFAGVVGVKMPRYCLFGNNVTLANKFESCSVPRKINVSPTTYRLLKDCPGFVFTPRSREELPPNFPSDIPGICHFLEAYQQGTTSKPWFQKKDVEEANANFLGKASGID
T1 sequence (P16068 1-619): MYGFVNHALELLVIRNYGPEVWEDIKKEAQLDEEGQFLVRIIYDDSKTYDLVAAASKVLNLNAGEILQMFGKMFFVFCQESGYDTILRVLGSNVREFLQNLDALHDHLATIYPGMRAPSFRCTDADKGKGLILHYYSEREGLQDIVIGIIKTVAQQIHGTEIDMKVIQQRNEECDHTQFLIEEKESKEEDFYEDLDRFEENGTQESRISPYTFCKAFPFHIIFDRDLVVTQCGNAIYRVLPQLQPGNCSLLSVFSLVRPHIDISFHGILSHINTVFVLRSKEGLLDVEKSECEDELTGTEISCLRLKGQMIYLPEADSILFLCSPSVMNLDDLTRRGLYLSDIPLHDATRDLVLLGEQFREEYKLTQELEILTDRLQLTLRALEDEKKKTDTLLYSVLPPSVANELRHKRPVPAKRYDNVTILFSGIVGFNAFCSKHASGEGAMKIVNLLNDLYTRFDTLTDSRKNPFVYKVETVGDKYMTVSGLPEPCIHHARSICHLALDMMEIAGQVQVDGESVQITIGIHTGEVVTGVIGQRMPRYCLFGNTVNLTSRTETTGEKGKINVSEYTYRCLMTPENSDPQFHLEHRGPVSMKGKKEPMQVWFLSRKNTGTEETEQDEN
Experimental: Activation of Soluble Guanylate Cyclase
The activation of soluble guanylate cyclase (sGC), which catalyzes the conversion of guanosine triphosphate (GTP) to cyclic guanosine monophosphate (cGMP) and pyrophosphate, by the compounds according to the invention was quantified with the aid of an enzyme immunoassay (EIA) from Amersham. For this, the test substances were first incubated with sGC in microtiter plates and then the quantity of the resulting cGMP was determined.
The test solutions (100 μl per well) contained 50 mM triethanolamine (TEA) buffer (pH 7.5), 3 mM MgCl2, 3 mM reduced glutathione (GSH), 0.1 mM GTP, 1 mM 3-isobutyl-1-methylxanthine (IBMX), suitably diluted enzyme solution and the test substance or, in the control experiments, solvent. The test substances were dissolved in dimethyl sulfoxide (DMSO) and the solution was diluted with DMSO/water such that the final concentration c of test substance in the test batch was 50 μM. The DMSO concentration in the test batch was 5% (v/v). The reaction was started by addition of the sGC. The reaction mix was incubated at 37° C. for 15 to 20 minutes and then stopped by ice-cooling and addition of the stop reagent (50 mM EDTA, pH 8.0). An aliquot of 50 μl was taken and employed for the determination of the cGMP content using the acetylation protocol of the Amersham cGMP EIA kit. The absorption of the samples was measured at 450 nm (reference wavelength 620 nm) in a microtiter plate reading apparatus. The cGMP concentration was determined by means of a calibration curve, which was obtained under the same experimental conditions.
n-fold stimulation=[cGMP]test substance/[cGMP]control.

| Structure (SMILES) | n-fold stimulation at c = 50 μM [1] [fold] | melting point [°C] |
| --- | --- | --- |
| Clc1ccc(-c2nc3c(c(NC4CCCC4)n2)CCC3)cc1 [Example 15, 2-(4-Chlorophenyl)-4-cyclopentylamino-6,7-dihydro-5H-cyclopenta[d]pyrimidine] | 7 |  |
| CS(=O)(=O)O.O[C@H]1CC[C@H](Nc2nc(-c3cc(Cl)cc(Cl)c3)nc3c2CCC3)CC1 [Example 16, 2-(3,5-Dichlorophenyl)-4-(trans-4-hydroxycyclohexylamino)-6,7-dihydro-5H-cyclopenta[d]pyrimidine methanesulfonic acid salt] | 34 |  |
| CCN(CC)c1nc(-c2cccc(Cl)c2)nc2c1CCC2.Cl [Example 25, 2-(3-Chlorophenyl)-4-diethylamino-6,7-dihydro-5H-cyclopenta[d]pyrimidine hydrochloride] | 6 | 185 |
| CCN(CC)c1nc(-c2ccc(Cl)cc2)nc2c1CCC2.Cl [Example 26, 2-(4-Chlorophenyl)-4-diethylamino-6,7-dihydro-5H-cyclopenta[d]pyrimidine hydrochloride] | 5 | 185 |
| CCCCNc1nc(-c2ccc(Cl)cc2)nc2c1CCC2 [Example 30, 2-(4-Chlorophenyl)-4-butylamino-6,7-dihydro-5H-cyclopenta[d]pyrimidine] | 6 | 121 |
| Clc1cccc(-c2nc3c(c(NC4CCCC4)n2)CCC3)c1 [Example 32, 2-(3-Chlorophenyl)-4-cyclopentylamino-6,7-dihydro-5H-cyclopenta[d]pyrimidine] | 15 | 129 |
| CCCCNc1nc(-c2cccc(Cl)c2)nc2c1CCC2 [Example 33, 2-(3-Chlorophenyl)-4-butylamino-6,7-dihydro-5H-cyclopenta[d]pyrimidine] | 5 |  |
| O[C@H]1CC[C@H](Nc2nc(-c3ccc(Cl)cc3)nc3c2CCC3)CC1 [Example 34, 2-(4-Chlorophenyl)-4-(trans-4-hydroxycyclohexylamino)-6,7-dihydro-5H-cyclopenta[d]pyrimidine] | 35 | 216 |
| CCCN(CCC)c1nc(-c2ccc(Cl)cc2)nc2c1CCC2 [Example 35, 2-(4-Chlorophenyl)-4-dipropylamino-6,7-dihydro-5H-cyclopenta[d]pyrimidine] | 7 | 114 |
| CCCCNc1nc(-c2ccc(C)cc2)nc2c1CCC2 [Example 40, 2-(4-Methylphenyl)-4-butylamino-6,7-dihydro-5H-cyclopenta[d]pyrimidine] | 8 | 133 |
| Cc1ccc(-c2nc3c(c(NC4CCCC4)n2)CCC3)cc1 [Example 41, 2-(4-Methylphenyl)-4-cyclopentylamino-6,7-dihydro-5H-cyclopenta[d]pyrimidine] | 9 | 183 |
| Cc1ccc(-c2nc3c(c(NC4CCCCC4)n2)CCC3)cc1 [Example 42, 2-(4-Methylphenyl)-4-cyclohexylamino-6,7-dihydro-5H-cyclopenta[d]pyrimidine] | 10 | 163 |
| Cc1ccc(-c2nc3c(c(N[C@H]4CC[C@H](O)CC4)n2)CCC3)cc1 [Example 43, 2-(4-Methylphenyl)-4-(trans-4-hydroxycyclohexylamino)-6,7-dihydro-5H-cyclopenta[d]pyrimidine] | 23 | 191 |
| CCCN(CCC)c1nc(-c2ccc(C)cc2)nc2c1CCC2 [Example 45, 2-(4-Methylphenyl)-4-dipropylamino-6,7-dihydro-5H-cyclopenta[d]pyrimidine] | 7 | 117 |
| OCCCCNc1nc(-c2cc(Cl)cc(Cl)c2)nc2c1CCC2 [Example 48, 2-(3,5-Dichlorophenyl)-4-(4-hydroxybutylamino)-6,7-dihydro-5H-cyclopenta[d]-pyrimidine] | 9 | 142 |
| CCCCNc1nc(-c2cc(Cl)cc(Cl)c2)nc2c1CCC2 [Example 49, 2-(3,5-Dichlorophenyl)-4-butylamino-6,7-dihydro-5H-cyclopenta[d]pyrimidine] | 5 | 93 |
| Clc1cc(Cl)cc(-c2nc3c(c(NC4CCCC4)n2)CCC3)c1 [Example 50, 2-(3,5-Dichlorophenyl)-4-cyclopentylamino-6,7-dihydro-5H-cyclopenta[d]-pyrimidine] | 8 | 153 |
